# Test results published in patent US12144789B2, “Pharmaceutical composition exhibiting anti-tumor activity, method for treating patient suffering from cancer and method for inhibiting tumor growth” (Gongwin Biopharm Co., Ltd., priority 2016, dated 2024).
# Read-outs that look alike come from different tables or passages of the source.
# Assays:
# [1] = tested on: Lysosomes of Tca-8113 cells; assay: Lysosomal integrity assay (LMP), lysosomal β-galactosidase free activity; type: biochemical; conditions: isolated lysosomes of Tca-8113 cells
# Method: Next, a lysosomal integrity assay (LMP) is performed to assess the effects of PTS on lysosomal membrane integrity. Lysosomes of Tca-8113 cells were isolated using the Percoll gradient centrifugation method. The effects of PTS on lysosomal integrity were assessed by measuring the activity of lysosomal β-galactosidase using UMBG (4-methylumbelliferyl-β-D-galactoside). The 4-methylumbelliferone released was determined by measuring its fluorescence (excitation: 365 nm, emission: 444 nm) on a fluorescence spectrophotometer. The activity of the enzyme measured in the presence and absence of 0.36% Triton X-100 was designated the […], respectively.
# cathepsin B = assay: Western blot analysis of cleaved cathepsin B; type: cell-based; conditions: Tca-8113 cells, 40 μmol/l PTS, 1 h
# Method: In the western blot analysis, Tca-8113 cells are analyzed after 40 μmol/l PTS treatment for 1 h.
# Tca-8113 cells [2] = assay: cells; type: cell-based; conditions: 1 h
# Method: Next, cancer cell death is measured by using flow cytometric analysis. Tca-8113 cells were treated with 40 μmol/l and 80 μmol/l PTS or DMSO (control) for 1 h. Cells were stained with Annexin V− FITC and propidium iodide (PI), followed by flow cytometric analysis.
# cytochrome c = assay: Western blot analysis of cytosolic cytochrome c; type: cell-based; conditions: Tca-8113 cells, 40 μmol/l and 80 μmol/l PTS, 1 h
# Method: (§1) Increased lysosomal permeability is reported to induce mitochondrial damage and the release of pro-apoptotic factors. The applicant therefore investigated the cytosolic cytochrome c released from the mitochondria after PTS treatment. […] Inhibition of ATP biosynthesis is observed when Tca-8113 cells were treated with 40 μmol/l PTS or DMSO for […]. The effects of PTS on ATP biosynthesis were assessed by measuring chemiluminescence. […] 40 μmol/l PTS treatment for 1 h attenuated ATP biosynthesis to 65.8%.
# Tca-8113 cells [3] = assay: Lactate dehydrogenase (LDH) release assay (necrosis); type: cell-based; conditions: 80 μmol/l PTS, 1 h
# Method: Furthermore, in studying PTS-induced necrosis, LDH release assay is used. LDH is a cytosolic enzyme that can be released into culture medium upon damage of the plasma membrane. Necrosis, which results in an early loss of plasma membrane integrity, can be determined using the LDH release assay. In LDH release assay, Tca-8113 cells were treated with 80 μmol/l PTS or DMSO for 1 h; PTS-induced necrosis was determined using the lactate dehydrogenase (LDH) release assay.
# Tca-8113 cells [4] = assay: Morphologic changes by phase-contrast microscope; type: cell-based; conditions: 40 μmol/l PTS for 1 h
# Method: Next, in observing the morphological feature of the treated cells, Tca-8113 and HGF cells were treated with 40 μmol/l PTS or DMSO (control vehicle) for 1 h; the morphologic changes were observed using a phase-contrast microscope.
# Tca-8113 cells [5] = type: cell-based; conditions: human; for intracellular PTS concentration variation between Tca-8113 cells and HGF cells: 10 min
# Method: Firstly, Tca-8113 were treated with PTS or dimethyl sulfoxide (DMSO) (control vehicle) and then extract the intracellular matrix subjected to high-performance liquid chromatography.
# (§2) In assessing the accumulation of intracellular PTS between Tca-8113 cells and normal cells after different doses and incubation periods of PTS treatment, Tca-8113 and Human gingival fibroblast (HGF) cells were treated 2.5 μmol/l˜80 μmol/l PTS for different periods. Please see FIG. 2A and FIG. 2B, which show the plots of intracellular PTS concentration after 2.5 μmol/l˜80 μmol/l PTS treatment for different periods of time in Tca-8113 and HGF cell, respectively. […] However, the accumulated intracellular PTS concentration in […] cells is much higher than that in HGF cells. […] The intracellular PTS concentration variation between the Tca-8113 cells and HGF cells can range from 5× (20 μmol/l), 8× (40 μmol/l) to 12 (80 μmol/l).
# [6] = tested on: Human gingival fibroblast (HGF) cells; type: cell-based
# Method: (§3) To examine the effects of PTS on cell viability, Tca-8113 and HGF cells were treated with different doses of PTS for 1 h. The 3-(4,5-dimethylthiazol-2-yl)-2,5-diphenyltetrazolium bromide (MTT) assay is conducted by treating Tca-8113 and human gingival fibroblast (HGF) cells with 2.5 μmol/l, 5 μmol/l, 10 μmol/l, 20 μmol/l, 40 μmol/l and 80 μmol/l PTS for 1 h, respectively. The effects of PTS on cell viability were assessed using MTT 72 h after treatment. […] PTS induces more significant cell death in […] cells than that in normal gingival fibroblasts. Taking the 10 μmol/l […] treatment for example, about 50% Tca-8113 cells were suppressed while only 10% […] cells were suppressed, so the suppression ratio (cancer cell suppression %/normal cell suppression %) is 5. Similarly, the suppression ratios of 20 μmol/l, 40 μmol/l and 80 μmol/l are 2.6, 1.8, 1.05.
# Tca-8113 cells [7] = assay: Transmission electron microscopy of ultrastructural changes; type: cell-based; conditions: 40 μmol/l PTS, 1 h
# Method: To investigate the mechanisms of PTS-induced cell death, the present invention uses transmission electron microscopy analysis to observe the changes in ultrastructures of Tca-8113 cells. Tca-8113 cells were treated with 40 μmol/l PTS or dimethyl sulfoxide for 1 h. The ultrastructural changes were observed using a transmission electron microscope. […] More secondary lysosomes (pointed by arrow) with high electron density were observed after PTS treatment. Lysosomal instability was proposed to control the fate of cells either through activation of apoptosis or necrosis.
# [8] = tested on: mitochondrial ATP biosynthesis in Tca-8113 cells; assay: ATP biosynthesis by chemiluminescence; type: cell-based; conditions: 40 μmol/l PTS
# Method: as §1
# [9] = tested on: Human gingival fibroblast (HGF) cells; type: cell-based; conditions: 10 min
# Method: as §2
# Tca-8113 cells [10] = assay: MTT cell viability assay; type: cell-based; conditions: for suppression ratio (cancer cell suppression %/normal cell suppression %): Tca-8113 vs HGF
# Method: as §3
# [11] = cited from earlier work
# Tca-8113 cells [12] = assay: Colony formation assay; type: cell-based; conditions: 80 μmol/l PTS
# Text: Colony formation assay shown in FIG. 6 further confirms the cytotoxic effects of PTS on Tca-8113 cells.
# Tca-8113 cells [13] = assay: Transwell migration assay; type: cell-based; conditions: 40 μmol/l PTS, 1 h
# Method: The effect of PTS on the invasive ability of cancer cells is also investigated. Tca-8113 cells were treated with 40 μmol/l PTS or DMSO for 1 h; the effects of PTS on cell migration were determined using a transwell migration assay.
# [14] = read-out: Viable cells (Annexin V−/PI−)
# [15] = 10 μmol/l for 1 h, MTT 72 h after treatment
structure (smiles),measurement,setting,value
"Cc1ccc(S(N)(=O)=O)cc1 [PTS, para-toluenesulfonamide]",free enzyme activity (lysosomal β-galactosidase),[1],significantly increase free enzyme activity in a dose-dependent manner
same,cleaved cathepsin B expression,cathepsin B,significantly increases cleaved cathepsin B expression
same,Late apoptotic/necrotic rate (Annexin V+/PI+),Tca-8113 cells [2]; 40 μmol/l PTS,11.5%
same,early apoptotic rate (Annexin V+/PI−),Tca-8113 cells [2]; 40 μmol/l PTS,20.2%
same,Late apoptotic/necrotic rate (Annexin V+/PI+),Tca-8113 cells [2]; 80 μmol/l PTS,15.9%
same,early apoptotic rate (Annexin V+/PI−),Tca-8113 cells [2]; 80 μmol/l PTS,64.1%
same,viability at 40 µM,Tca-8113 cells [2]; [14],67.5%
same,viability at 80 µM,Tca-8113 cells [2]; [14],19.8%
same,cytosolic cytochrome c expression,cytochrome c,significantly induced cytosolic cytochrome c expression
same,LDH release compared with the control group,Tca-8113 cells [3],two-fold increase
same,morphologic changes,Tca-8113 cells [4],"induce classical apoptotic features including cell shrinkage, nuclear condensation, cell density reduction, and apoptotic body formation"
same,intracellular PTS concentration,Tca-8113 cells [5],increase the intracellular PTS concentration in Tca-8113 cells in a dose dependent manner
same,intracellular PTS concentration variation between Tca-8113 cells and HGF cells,Tca-8113 cells [5]; 20 μmol/l,5 ×
same,intracellular PTS concentration variation between Tca-8113 cells and HGF cells,Tca-8113 cells [5]; 40 μmol/l,8 ×
same,intracellular PTS concentration variation between Tca-8113 cells and HGF cells,Tca-8113 cells [5]; 80 μmol/l,12
same,HGF cells suppressed,[6]; [15],10%
same,inhibitory effects of PTS in HGF cells,"[6]; human, 1 h",significantly decreased compared with that in Tca-8113 cells
same,ultrastructural changes,Tca-8113 cells [7],shrunk nuclei and an irregular nuclear membrane
same,mitochondrial ATP biosynthesis,[8]; 24-48 h,significantly inhibited mitochondrial ATP biosynthesis in a time-dependent manner
same,ATP biosynthesis attenuated to,[8]; 1 h,65.8%
same,intracellular PTS accumulation,[9],significantly inhibited in HGF cells compared with that in Tca-8113 cells
same,Tca-8113 cells suppressed,Tca-8113 cells [10]; [15],about 50%
same,suppression ratio (cancer cell suppression %/normal cell suppression %),Tca-8113 cells [10]; 10 μmol/l,5
same,suppression ratio (cancer cell suppression %/normal cell suppression %),Tca-8113 cells [10]; 20 μmol/l,2.6
same,suppression ratio (cancer cell suppression %/normal cell suppression %),Tca-8113 cells [10]; 40 μmol/l,1.8
same,number of viable cells,"Tca-8113 cells [10]; 80 μmol/l PTS for 1 h, MTT 72 h after treatment",almost completely suppressed the number of viable cells
same,suppression ratio (cancer cell suppression %/normal cell suppression %),Tca-8113 cells [10]; 80 μmol/l,1.05
same,viability of Tca-8113 cells,"Tca-8113 cells [10]; 2.5-80 μmol/l PTS for 1 h, MTT 72 h after treatment",significantly reduced the viability of Tca-8113 cells in a dose-dependent manner
same,solubility in water or a water-based solution,[11],not readily dissolved in water or in a water-based solution
same,number of viable cells (colony formation),Tca-8113 cells [12],almost completely suppressed the number of viable cells
same,invasive ability (cell migration),Tca-8113 cells [13],significantly reduced the invasive ability of Tca-8113 cells
